Where two headings read alike, the source gives them in different places. No end group written: not given here.
Assays:
FIG.5 = settings: for half-life: CD, rat, plasma, iv, read-out: T1/2β (converted)
Text: Table printed on a drawing sheet, FIG.5
The patent's description of the figure: FIG. 5.
First reader's note: The table is printed under a plasma concentration-time plot of the same two peptides, which is not copied.

RSV = experiment: Respiratory syncytial virus plaque reduction assay (Hep2 cells); assay type: cell-based
Procedure: All necessary dilutions of peptides were performed in clean, sterile 96-well TC plate. A total of eleven dilutions for each peptide and one control well containing no peptide were assembled. The final concentration range of peptide started at 50 μg/ml or 100 μg/ml, with a total of eleven two-fold dilutions. The RSV was prepared at a concentration of 100PFU/well in 100 μl 3% EMEM, as determined by a known titer of RSV. The virus is then added to all of the wells.
The media was removed from one sub-confluent 96-well plate of Hep2 cells. The material from the dilution plate was transferred onto the cell plates starting with row 1 and then transferring row 12, row 11, etc. until all rows were transferred. Plates were placed back into the incubator for 48 hours.
The cells were checked to ensure that syncytia were present in the control wells. Media was removed and approximately 50 μls of 0.25% Crystal Violet in methanol was added to each well. The wells were rinsed immediately in water to remove excess stain and allowed to dry. Using a dissecting microscope, the number of syncytia in each well was counted.

[1] = Rat pharmacokinetic studies, IV, fluorescence HPLC of plasma; assay type: in vivo, CD rats; settings: for half-life relative to core peptide T1476 / half-life relative to core peptide T786: CD rats
Procedure: 250-300 g male CD rats, double jugular catheter, obtained from Charles River Laboratories were used. Peptides were injected in one jugular catheter in a volume of 200 μl of peptide solution (approximately 3.75 mg/ml), dosing solution concentration was determined using the Edelhoch method, (Edelhoch, 1967, Biochemistry 6:1948-1954) method and adjusted based on animal weight such that each animal received a dose of 2.5 mg/kg). Approximately 250-300 μl of blood was removed at predetermined time intervals (0, 15, 30 min and 1, 2, 4, 6, and 8 hours) and added to EDTA capiject tubes. Plasma was removed from pelleted cells upon centrifugation and either frozen or immediately processed for fluorescence HPLC analysis.
100 μl of sample plasma was added to 900 μl of precipitation buffer (acetonitrile, 1.0% TFA, detergent) resulting in precipitation of the majority of plasma proteins. Following centrifugation at 10,000 rpm for 10 min, 400 μl of the supernatant was removed and added to 600 μl of HPLC grade water. Serial dilutions were performed as dictated by concentration of peptide present in each sample in dilution buffer comprised of 40% precipitation buffer and 60% HPLC water. In addition to sample dilutions, serial dilutions of dosing solution were performed in buffer as well as in plasma and used to generate a standard curve relating peak area to known concentration of peptide. This curve was then used to calculate concentration of peptide in plasma taking into account all dilutions performed and quantity injected onto column.

[2] = biological target: M41Δ178 (a truncated gp41 ectodomain fusion protein lacking the T20 amino acid sequence)
HIV-1 [3] = tested on: HIV-1
HIV-2 NIHZ = experiment: virus mediated cell-cell fusion assay (chronically infected CEM cells mixed with uninfected Molt-4 cells); assay type: cell-based
SIV isolate B670 = experiment: Magi-CCR-5 infectivity assay; assay type: cell-based
HIV-1 [4] = experiment: Human PBMC infectivity/neutralization assay; assay type: cell-based
Procedure: The prototypic assay used cell lines where the primary isolate assay utilizes PBMC, obtained through Interstate Blood Bank, activated for 2-3 days with a combination of OKT3 (0.5 μg/ml) and CD28 antibodies (0.1 μg/ml). The target cells were banded on lymphocyte separation medium (LSM), washed, and frozen. Cells were thawed as required and activated as indicated above a minimum of 2-3 days prior to assay. In this 96-well format assay, cells were at a concentration of 2×10^6/ml in 5% IL-2 medium and a final volume of 100 μl. Peptide stock solutions were made in DPBS (1 mg/ml). Peptide dilutions were performed in 20% FBS RPM1 1640/5% IL-2 complete medium.

HIV-1 9320 = experiment: In vivo HuPBMC-SCID mouse model of HIV-1 9320 infection; design: species or system SCID mice; settings: 67 mg/kg total daily dose, IP, bid, 8 days
Procedure: Female SCID mice (5-7 weeks old) received 5-10×10^7 adult human PBMC injected intraperitoneally. Two weeks after reconstitution, mice were infected IP on day 0 with 10^3 TCID50 HIV-1 9320 (AZT-sensitive isolate A018). Treatment with peptides was IP, bid, beginning day −1 and continuing through day 6. The extent of infection in blood cells, splenocytes, lymph nodes, and peritoneal cells was assayed by quantitative co-culture with human PBMC blasts weekly for three consecutive weeks following animal exsanguinations and tissue harvest (day 7, approximately 12-18 hours following the last drug treatment). Co-culture supernatants were evaluated for HIV-1 p24 antigen production as a measure of virus infection (Immunotek Coulter kits and protocol).
Two weeks after reconstitution with HuPBMCs, mice were infected IP on day 0 with 10^3 TCID50 HIV-1 9320 passed in PBMCs (AZT-sensitive isolate A018). […] The extent of infection in blood cells, splenocytes, lymph nodes, and peritoneal cells was assayed by quantitative co-culture with human PBMC blasts weekly for three consecutive weeks following animal exsanguinations and tissue harvest (day 7, approx. 12 to 18 hours following last drug treatment). Co-culture supernatants were evaluated for HIV-1 p24 antigen production as a measure of virus infection.

HIV-1 [5] = tested on: HIV-1; remark: listed apart in the source
[6] = biological target: M41Δ178 (a truncated gp41 ectodomain fusion protein lacking the T20 amino acid sequence); remark: listed apart in the source

CC[C@H](C)[C@H](NC(=O)[C@H](CCC(N)=O)NC(=O)[C@H](C)NC(=O)[C@H](CCC(N)=O)NC(=O)[C@H](CCC(=O)O)NC(=O)[C@H](CC(C)C)NC(=O)[C@H](CC(C)C)NC(=O)[C@H](C)NC(=O)[C@@H](NC(=O)[C@@H](NC(=O)[C@H](CCCCN)NC(=O)[C@H](CCC(N)=O)NC(=O)[C@H](CCC(=O)O)NC(=O)[C@H](Cc1c[nH]c2ccccc12)NC(=O)[C@H](CCC(=O)O)NC(=O)[C@H](CCC(N)=O)NC(=O)[C@H](Cc1c[nH]c2ccccc12)NC(C)=O)[C@@H](C)CC)[C@@H](C)O)C(=O)N[C@@H](CCC(N)=O)C(=O)N[C@@H](CCC(N)=O)C(=O)N[C@@H](CCC(=O)O)C(=O)N[C@@H](CCCCN)C(=O)N[C@@H](CC(N)=O)C(=O)N[C@@H](CCC(=O)O)C(=O)N[C@@H](Cc1ccc(O)cc1)C(=O)N[C@@H](CCC(=O)O)C(=O)N[C@@H](CC(C)C)C(=O)N[C@@H](CCC(N)=O)C(=O)N[C@@H](CCCCN)C(=O)N[C@@H](CC(C)C)C(=O)N[C@@H](CC(=O)O)C(=O)N[C@@H](CCCCN)C(=O)N[C@@H](Cc1c[nH]c2ccccc12)C(=O)N[C@@H](C)C(=O)N[C@@H](CO)C(=O)N[C@@H](CC(C)C)C(=O)N[C@@H](Cc1c[nH]c2ccccc12)C(=O)N[C@@H](CCC(=O)O)C(=O)N[C@@H](Cc1c[nH]c2ccccc12)C(=O)N[C@@H](Cc1ccccc1)C(N)=O [T1249A1]
AUC[0-8] (FIG.5): 71.43 µg/h/mL
half-life (FIG.5): 4.71 h

Ac-VYPSDEYDASISQVNEEINQALAYIRKADELLENV-NH2 [T786, RSV core peptide]
ability to inhibit RSV infection (plaque formation of HEp2 cells) (RSV): able to inhibit RSV infection

Ac-WQAWDEYDASISDVNEKINQALAYIREADELWEWF-NH2 [T1303, RSV hybrid polypeptide]
half-life relative to core peptide T1476 [1]: greatly enhanced half-life
ability to inhibit RSV infection (plaque formation of HEp2 cells) (RSV): inhibit RSV infection

Ac-WQAWDEYDASISQVNEKINQALAYIREADELWAWF-NH2 [T1302]
half-life relative to core peptide T786 [1]: greatly enhanced half-life
half-life relative to core peptide T1476 [1]: greatly enhanced half-life
ability to inhibit RSV infection (plaque formation of HEp2 cells) (RSV): inhibit RSV infection

Ac-WQEWDEYDASISQVNEKINQALAYIREADELWAWF-NH2 [T1301, Ac-WQEWDEYDASISQVNEKINOALAYIREADELWA WF-NH2]
half-life relative to core peptide T786 [1]: greatly enhanced half-life
half-life relative to core peptide T1476 [1]: greatly enhanced half-life
ability to inhibit RSV infection (plaque formation of HEp2 cells) (RSV): inhibit RSV infection

Ac-WQEWEQKIQHWSYGLRPGWASLWEWF-NH2 [T1324]
half-life compared to the T1323 core peptide ([1]; CD male rats): significantly increased half-life

T20 (peptide)
Kd [2]: 1 to 2 nM

WMEWDREINKYTSLIHSLIEESQNQQEKNEQELL [DP397]
inhibition of HIV-1 infection compared to T1249 (HIV-1 [3]; DH012-649 strain, at higher concentrations): increased inhibition of HIV-1 infection
inhibition of HIV-1 infection compared to T1249 (HIV-1 [3]; RF-649 strain): increased inhibition of HIV-1 infection
inhibition of HIV-1 infection compared to T649 (HIV-1 [3]; T649 resistant strains RF-649, DH012-649, 3′ETVQQQ, SIM-649): markedly increased inhibition of HIV-1 infection

enfuvirtide [listing 1 of 2 here]
half-life (FIG.5): 1.6 h

enfuvirtide [listing 2 of 2 here]
fusion inhibition (HIV-2 NIHZ): 3610.0 ng/mL
EC-50 (SIV isolate B670): 2313
Vn/Vo = 0.1 (SIV isolate B670): >10000
Vn/Vo = 0.1 (HIV-1 [4]; HIV-1 9320): 6000 ng/mL
Vn/Vo = 0.1 (HIV-1 [4]; HIV-1 301593 (subtype B, SI)): 3500 ng/mL
Vn/Vo = 0.1 (HIV-1 [4]; HIV-1 301714 (subtype B, NSI)): 8000 ng/mL
Vn/Vo = 0.1 (HIV-1 [4]; HIV-1 302056 (subtype B, NSI)): 800 ng/mL
Vn/Vo = 0.1 (HIV-1 [4]; HIV-1 302077 (subtype A)): 3300 ng/mL
Vn/Vo = 0.1 (HIV-1 [4]; HIV-1 302143 (SI)): 1600 ng/mL
Vn/Vo = 0.1 (HIV-1 [4]; HIV-1 G691-2 (AZT-R)): 1300 ng/mL
Vn/Vo = 0.1 (HIV-1 [4]; HIV-1 IIIB, dose required to reduce virus titer by one log): 250 ng/mL
Vn/Vo = 0.1 (HIV-1 [4]; HIV-1 pNL4-3): 3500 ng/mL
Vn/Vo = 0.1 (HIV-1 [4]; HIV-1 pNL4-3 SM (T20-R)): >10000 ng/mL
infectious virus in blood or lymph tissues (HIV-1 9320): not detectable
virus in peritoneal washes and spleen preparation (HIV-1 9320): detected
fusion inhibition (HIV-1 [5]; HIV-1 9320): 118.4 ng/mL
fusion inhibition (HIV-1 [5]; HIV-1 G691-2 (AZT-R)): 406.0 ng/mL
fusion inhibition (HIV-1 [5]; HIV-1 G762-3 (Pre-AZT)): 340.1 ng/mL
fusion inhibition (HIV-1 [5]; HIV-1 IIIB): 2.5 ng/mL
fusion inhibition (HIV-1 [5]; HIV-1 MN): 20.0 ng/mL
fusion inhibition (HIV-1 [5]; HIV-1 RF): 6.1 ng/mL
fusion inhibition (HIV-1 [5]; HIV-1 pNL4-3 SM (T20 Resistant)): 405.3 ng/mL
EC-50 (HIV-1 [3]; HIV-1 9320): 11
Vn/Vo = 0.1 (HIV-1 [3]; HIV-1 9320): 50
EC-50 (HIV-1 [3]; HIV-1 301714 (subtype B, NSI)): 1065
Vn/Vo = 0.1 (HIV-1 [3]; HIV-1 301714 (subtype B, NSI)): 4000
EC-50 (HIV-1 [3]; HIV-1 G691-2 (AZT-R)): 13
Vn/Vo = 0.1 (HIV-1 [3]; HIV-1 G691-2 (AZT-R)): 200
EC-50 (HIV-1 [3]; HIV-1 IIIB): 42
Vn/Vo = 0.1 (HIV-1 [3]; HIV-1 IIIB): 80
EC-50 (HIV-1 [3]; HIV-1 pNL4-3): 166
Vn/Vo = 0.1 (HIV-1 [3]; HIV-1 pNL4-3): 210
EC-50 (HIV-1 [3]; HIV-1 pNL4-3 SM (T20-R)): 90
Vn/Vo = 0.1 (HIV-1 [3]; HIV-1 pNL4-3 SM (T20-R)): 900
EC-50 (HIV-1 [3]; HIV-1 pNL4-3 SM (T20-R) Duke): 410
Vn/Vo = 0.1 (HIV-1 [3]; HIV-1 pNL4-3 SM (T20-R) Duke): 2600
EC-50 (HIV-1 [3]; HIV-1 pNL4-3 STM (T20/T649-R)): >50000
Vn/Vo = 0.1 (HIV-1 [3]; HIV-1 pNL4-3 STM (T20/T649-R)): >50000

WQEWEQKITALLEQAQIQQEKNEYELQKLDKWASLWEWF (not fully specified (N-terminus, C-terminus)) [T1249 (Ac-[…]-NH2)]
Kd [6]: 1 to 2 nM
